Measurements from US8455475B2 (Gruenenthal GmbH, priority 2009, dated 2013).

Columns and labels:
[1] = biological target: T1, human B1R (bradykinin receptor 1) (Homo sapiens, UniProt P46663); assay: FLIPR Ca2+ assay (Fluo-4) on CHO K1 cells stably transfected with the human B1R gene (hB1R cells): % inhibition at 10 μM / IC50, agonist Lys-Des-Arg9-bradykinin; assay type: cell-based; conditions: CHO-K1, human B1R
T1 construct: expressed in transfected cells; host or cells: CHO K1 cells
T1 sequence (P46663 1-353): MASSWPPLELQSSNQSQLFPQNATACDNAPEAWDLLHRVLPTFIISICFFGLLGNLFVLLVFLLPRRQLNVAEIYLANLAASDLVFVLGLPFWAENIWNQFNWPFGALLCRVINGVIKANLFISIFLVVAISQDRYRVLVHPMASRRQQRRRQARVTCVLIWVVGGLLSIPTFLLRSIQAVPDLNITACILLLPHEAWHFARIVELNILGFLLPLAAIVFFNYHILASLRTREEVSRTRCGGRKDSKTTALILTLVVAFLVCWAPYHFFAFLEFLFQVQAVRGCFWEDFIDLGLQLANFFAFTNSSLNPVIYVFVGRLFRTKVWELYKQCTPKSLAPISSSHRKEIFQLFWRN
Procedure: The agonistic or antagonistic action of substances can be quantified on the bradykinin receptor 1 (B1R) of the human and rat species with ectopically expressing cell lines (CHO K1 cells) and with the aid of a Ca^2+-sensitive dyestuff (Fluo-4) in a fluorescent imaging plate reader (FLIPR). The figure in % activation is based on the Ca^2+ signal after addition of Lys-Des-Arg^9-bradykinin (0.5 nM) or Des-Arg^9-bradykinin (100 nM). Antagonists lead to a suppression of the Ca^2+ inflow after addition of the agonist. % inhibition compared with the maximum achievable inhibition is stated.
The agonistic or antagonistic action of substances can be determined on the bradykinin receptor 1 (B1R) of the human and rat species with the following assay. In accordance with this assay, the Ca^2+ inflow through the channel is quantified with the aid of a Ca^2+-sensitive dyestuff (type Fluo-4, Molecular Probes Europe BV, Leiden, Holland) in a fluorescent imaging plate reader (FLIPR, Molecular Devices, Sunnyvale, USA).
Chinese hamster ovary cells (CHO K1 cells) transfected stably with the human B1R gene (hB1R cells) or the B1R gene of the rat (rB1R cells) are used. For functional studies, these cells are plated out on black 96-well plates with a clear base (BD Biosciences, Heidelberg, Germany or Greiner, Frickenhausen, Germany) in a density of 20,000-35,000 cells/well. The cells are left overnight at 37° C. and 5% CO2 in culture medium (hB1R cells: Nutrient Mixture Ham's F12, Gibco Invitrogen GmbH, Karlsruhe, Germany or DMEM, Sigma-Aldrich, Taufkirchen, Germany; rB1R cells: D-MEM/F12, Gibco Invitrogen GmbH, Karlsruhe, Germany) with 10 vol. % FBS (foetal bovine serum, Gibco Invitrogen GmbH, Karlsruhe, Germany or PAN Biotech GmbH, Aidenbach, Germany). On the following day, the cells are loaded for 60 min at 37° C. with 2.13 μM Fluo-4 (Molecular Probes Europe BV, Leiden Holland) in HBSS buffer (Hank's buffered saline solution, Gibco Invitrogen GmbH, Karlsruhe, Germany) with 2.5 mM probenecid (Sigma-Aldrich, Taufkirchen, Germany) and 10 mM HEPES (Sigma-Aldrich, Taufkirchen, Germany). The plates are then washed 2× with HBSS buffer, and HBSS buffer which additionally contains 0.1% BSA (bovine serum albumin; Sigma-Aldrich, Taufkirchen, Germany), 5.6 mM glucose and 0.05% gelatine (Merck KGaA, Darmstadt, Germany) is added. After a further incubation of 20 minutes at room temperature, the plates are inserted into the FLIPR for the Ca^2+ measurement. Alternatively, the plates are washed with buffer A (15 mM HEPES, 80 mM NaCl, 5 mM KCl, 1.2 mM CaCl2, 0.7 mM MgSO4, 2 g/l glucose, 2.5 mM probenecid), buffer A is added and the plates are loaded with 2.5 μM Fluo-4 and 0.025% Pluronic F127 (Sigma-Aldrich, Taufkirchen, Germany). Thereafter, the cells are washed 2× with buffer A and incubated for 30 minutes at room temperature with buffer A, which additionally contains 0.05% BSA and 0.05% gelatine, and thereafter inserted into the FLIPR for the Ca^2+ measurement. The Ca^2+-dependent fluorescence is measured here before and after addition of substances (λex=488 nm, λem=540 nm). Quantification is by measurement of the highest fluorescence intensity (FC, fluorescence counts) over time.
The FLIPR protocol consists of 2 additions of substance. Test substances (10 μM) are first pipetted on to the cells and the Ca^2+ inflow is compared with the control (hB1R: Lys-Des-Arg^9-bradykinin>=50 nM; rB1R: Des-Arg^9-bradykinin 10 μM). This gives the result in % activation based on the Ca^2+ signal after addition of Lys-Des-Arg^9-bradykinin (>=50 nM) or Des-Arg^9-bradykinin (10 μM). After incubation for 10-20 minutes, Lys-Des-Arg^9-bradykinin (hB1R) or Des-Arg^9-bradykinin (rB1R) in the concentration of the EC80 is applied and the inflow of Ca^2+ is likewise determined. Antagonists lead to a suppression of the Ca^2+ inflow. % inhibition compared with the maximum achievable inhibition is calculated.
For determination of the IC50 value, the substances are added in various concentrations. […]

[2] = biological target: T2, rat B1R (bradykinin receptor 1) (Rattus norvegicus, UniProt P97583); assay: FLIPR Ca2+ assay (Fluo-4) on CHO K1 cells stably transfected with the B1R gene of the rat (rB1R cells): % inhibition at 10 μM / IC50, agonist Des-Arg9-bradykinin; assay type: cell-based; conditions: CHO-K1, rat B1R
T2 construct: expressed in transfected cells; host or cells: CHO K1 cells
T2 sequence (P97583 1-337): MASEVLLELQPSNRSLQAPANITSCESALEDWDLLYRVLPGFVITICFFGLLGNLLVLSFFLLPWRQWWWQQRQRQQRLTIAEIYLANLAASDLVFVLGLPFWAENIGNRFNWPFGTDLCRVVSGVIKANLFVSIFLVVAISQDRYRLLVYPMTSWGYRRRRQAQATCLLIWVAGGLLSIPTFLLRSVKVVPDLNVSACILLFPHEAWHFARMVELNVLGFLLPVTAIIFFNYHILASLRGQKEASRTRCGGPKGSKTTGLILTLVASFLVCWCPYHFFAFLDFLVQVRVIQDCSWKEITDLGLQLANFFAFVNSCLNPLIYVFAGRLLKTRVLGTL
Summary of the method: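 Cells were Fluo-4-loaded, then test compound (10 μM, or a concentration series for IC50) was preincubated 10–20 min before agonist challenge at EC80: Lys-Des-Arg9-bradykinin for hB1R, Des-Arg9-bradykinin for rB1R. Peak Ca2+ fluorescence (ex 488/em 540 nm) gave % inhibition versus maximal achievable inhibition.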

| Structure (SMILES) | inhibition at 10 µM [1] | inhibition at 10 µM [2] |
| --- | --- | --- |
| COc1cc(C)c(S(=O)(=O)N[C@H]2CCCc3ccc(C(=O)N4CCC5(CCN(c6ccncc6)CC5)C4)cc32)c(C)c1 [Example H-18, 4-methoxy-2,6-dimethyl-N-[(1S)-7-(8-pyridin-4-yl-3,8-diazaspiro[4.5]decane-3-carbonyl)-1,2,3,4-tetrahydro-naphthalen-1-yl]-benzenesulfonic acid amide] | 96% | 104% |
| CC1(C)Cc2ccc(C(=O)N3CCC4(CC3)CCN(c3ccncc3)CC4)cc2C1NC(=O)c1ccc(Cl)cc1Cl (centres unmarked) [Ind_CC-067, 2,4-dichloro-N-[2,2-dimethyl-6-(9-pyridin-4-yl-3,9-diazaspiro[5.5]undecane-3-carbonyl)-1,3-dihydro-inden-1-yl]-benzamide] | 94% | 101% |
| O=C(N[C@@H]1CCc2ccc(C(=O)N3CCC4(CCC(C(=O)N5CCn6ncnc6C5)CC4)CC3)cc21)c1ccccc1Cl [Example H-97, 2-Chloro-N-[(1R)-6-[9-(5,6,7,8-tetrahydro-[1,2,4]triazolo[1,5-a]pyrazine-7-carbonyl)-3-azaspiro[5.5]undecane-3-carbonyl]-2,3-dihydro-1H-inden-1-yl]-benzamide] | 6% | 90% |
| O=C(c1ccc2c(c1)C(N(C(=O)c1ccccc1Cl)C1CC1)CC2)N1CCC2(CC1)CCN(c1ccncc1)C2 (centres unmarked) [Ind_CC-119, 2-chloro-N-cyclopropyl-N-[6-(2-pyridin-4-yl-2,8-diazaspiro[4.5]decane-8-carbonyl)-2,3-dihydro-1H-inden-1-yl]-benzamide] | 99% | 104% |

Other lines, results leading:

| inhibition at 10 µM [1] | inhibition at 10 µM [2] | Structure (SMILES) |
| --- | --- | --- |
| 101% | 109% | Cc1cccc(C)c1C(=O)N[C@@H]1CCc2ccc(C(=O)N3CCC4(CCN(c5ccncc5)CC4)C3)cc21 [Example H-104, 2,6-Dimethyl-N-[(1R)-6-(8-pyridin-4-yl-3,8-diazaspiro[4.5]decane-3-carbonyl)-2,3-dihydro-1H-inden-1-yl]-benzamide] |
| 100% | 108% | O=C(N[C@@H]1CCc2ccc(C(=O)N3CCC4(CCN(c5ccncc5)CC4)C3)cc21)c1cc(Cl)ccc1Cl [Example H-98, 2,5-Dichloro-N-[(1R)-6-(8-pyridin-4-yl-3,8-diazaspiro[4.5]decane-3-carbonyl)-2,3-dihydro-1H-inden-1-yl]-benzamide] |
| 97% | 106% | O=C(NC1CCc2ccc(C(=O)N3CCC4(CC3)CCN(c3ccncc3)C4)cc21)c1c(F)cccc1Cl (centres unmarked) [IND_CC-264, 2-Chloro-6-fluoro-N-[6-(2-pyridin-4-yl-2,8-diazaspiro[4.5]decane-8-carbonyl)-2,3-dihydro-1H-inden-1-yl]-benzamide] |
| 24% | 75% | O=C(N[C@H]1CCc2cc(C(=O)N3CCC4(CC3)CCN(c3ccncc3)CC4)ccc21)c1ccccc1Cl [Example H-156, 2-Chloro-N-[(1S)-5-(9-pyridin-4-yl-3,9-diazaspiro[5.5]undecane-3-carbonyl)-2,3-dihydro-1H-inden-1-yl]-benzamide] |
| 100% | 104% | O=C(NC1CCc2ccc(C(=O)N3CCC4(CC3)CCN(c3ccncc3)CC4)cc21)c1cc(F)c(F)cc1Cl (centres unmarked) [IND_CC-228, 2-Chloro-4,5-difluoro-N-[6-(9-pyridin-4-yl-3,9-diazaspiro[5.5]undecane-3-carbonyl)-2,3-dihydro-1H-inden-1-yl]-benzamide] |
| 100% | 81% | O=C(NC1CCc2ccc(C(=O)N3CCC4(CC3)CCN(c3ccncc3)C4)cc21)c1ccc(F)cc1Cl (centres unmarked) [IND_CC-263, 2-Chloro-4-fluoro-N-[6-(2-pyridin-4-yl-2,8-diazaspiro[4.5]decane-8-carbonyl)-2,3-dihydro-1H-inden-1-yl]-benzamide] |
